The values below come from patent publication US4293489A, “Derivatives of A-30912A nucleus” (Eli Lilly and Company, priority 1980, dated 1981).

In assay [1] the test system is Candida albicans A-26. Put plainly: Agar plate disc diffusion test, MIC per disc. The following applies: 0.1M sodium borate, pH 7.5, 24 hours, 30° C. The assay is classed as cell-based. As to the method: (§1) Tables 10 and 11 give the results of the testing in vitro of the compounds of Examples 3 and 4 by agar-plate disc-diffusion methods. In Table 10 activity is measured by the size (diameter in mm) of the observed zone of inhibition of the microorganism produced by the test compound. In Table 11, activity is measured by the minimal inhibitory concentration (MIC) of the substance (μg/disc) required to inhibit growth of the test organism. Table 12 gives the results of the testing in vitro of the p-(n-octyloxy)benzoyl derivative of A30912A nucleus [Formula III, R^1 is p-(n-octyloxy)benzoyl] against five strains of Candida albicans by the agar dilution method. In Table 12 activity is measured by the minimal inhibitory concentration (MIC) of the substance (μg/ml) required to inhibit the test organism.
(§2) ^(a) Compounds were suspended in 0.1M sodium borate solution, pH 7.5.
(§3) The compounds were tested at 20 μg/disc at top level and at twofold
(§4) dilutions until end points were reached. Incubation: 24 hours; 30°
Background: In agar diffusion tests the substance spreads into inoculated agar from a disc or well.

For assay [2], the system named is Trychophyton mentagrophyes #6. Put plainly: Agar plate disc diffusion test, MIC per disc. Format: cell-based, Trichophyton mentagrophytes. Conditions: 0.1M sodium borate, pH 7.5, 24 hours, 30° C., * measurable zones with regrowth of organism around disc. As to the method:
as §1, §2, §3, §4
*Measurable zones of inhibition with regrowth of organism around disc.

The subject of assay [3] is Candida albicans A-26. Put plainly: Therapeutic activity against Candida albicans A-26 infection in mice, ED50. Format: in vivo. Conditions: Candida albicans, A26, sc, doses 0, 4 and 24 hours post infection, increase in survival time vs control, Reed-Muench, read-out: ED50. As to the method:
The results of in vivo tests to evaluate the effectiveness of the compounds of Examples 3 and 4 against an infection caused by Candida albicans A-26 in mice are given in Table 13, where activity is measured by the ED50 value (the dose in mg/kg. required to cure 50% of the test animals). In a separate test, the results of which are also summarized in Table 13, activity is indicated by the lowest dose at which a significant anti-fungal effect is observed. In this test, groups of male albino mice (specific pathogen free), weighing 18 to 20 grams, are infected intravenously with Candida albicans A-26. The animals are X-irradiated 24 hours prior to infection at about 50 roentgens per minute for 8 minutes (400 total dose) to reduce immune responses to the infecting organism. At 0, 4, and 24 hours post infection each group of mice is given graded doses subcutaneously of the test compound as a suspension in 33% polyethylene glycol (PEG)-water. The day of death for each animal is recorded.
*Dosage Schedules: A. = 40, 20, 15 and 10 mg/kg; Dosages given 0, 4, and
24 hours post injection as suspension of test compound in 30% PEGH2
O. Number of mice receiving test compounds at each dosage level: 6 mice
per group. Number of mice in control (untreated) group: 10 mice per group
**As measured by increase in survival time of treated animals versus
control, calculated by method of Reed v Mueuch, American J. Hygiene, 27,

Molecules are shown by their SMILES. Starred links: 1 amine or outer side, 2 acyl side, 3 side chain; linkers in the order of their positions; H or OH if unused. Positions of bridges follow the written chain, without caps; N, C: chain ends. Non-standard residues stand in square brackets, D forms with d. Residues, ends and D or L forms follow the SMILES beside them. *: point of attachment. Orn(4R-OH,5R-OH) = O=C([C@H](C[C@@H](O)[C@@H](O)N[*:3])N[*:1])[*:2]; hTyr(3S-OH,4S-OH) = N[C@H](C(=O)O)[C@H](O)[C@@H](O)c1ccc(O)cc1; Benzoyl(4-OC10H21) = CCCCCCCCCCOc1ccc(C(=O)*)cc1; Pro(3S-OH,4S-Me) = C[C@H]1CN[C@H](C(=O)O)[C@H]1O; Benzoyl(4-octyloxy) = CCCCCCCCOc1ccc(C(=O)*)cc1; X4 = CCCCCCCCCCS(=O)(=O)c1ccc(C(=O)*)cc1; X23 = CCCCCCCCS(=O)(=O)c1ccc(C(=O)*)cc1; X22 = CCCCCCCCCCCCOc1ccc(CCC(=O)*)cc1; X25 = CCCCCCCCCCOc1ccc(OCC(=O)*)cc1; X1 = CCCCCCCCCCCCSc1ccc(C(=O)*)cc1; X21 = CCCCCCCCOc1ccc(CCC(=O)*)cc1; Hyp = O=C(O)[C@@H]1C[C@@H](O)CN1; X29 = CCCCCCCOc1ccc(CCC(=O)*)cc1; X6 = CCCCCCCCCCSc1ccc(C(=O)*)cc1; X30 = CCCCCCCCOc1ccc(C(=O)*)cn1; X26 = CCCCCOc1ccc(CCC(=O)*)cc1; X7 = CCCCCCCCSc1ccc(C(=O)*)cc1 Some results are limits rather than exact numbers.

Take `CCCCCCCCCCOc1ccc(OCC(=O)N[C@H]2C[C@@H](O)[C@@H](O)NC(=O)[C@@H]3[C@@H](O)[C@@H](C)CN3C(=O)[C@H]([C@@H](C)O)NC(=O)[C@H]([C@H](O)[C@@H](O)c3ccc(O)cc3)NC(=O)[C@@H]3C[C@@H](O)CN3C(=O)[C@H]([C@@H](C)O)NC2=O)cc1` (X25-[Orn(4R-OH,5R-OH)]T[Hyp][hTyr(3S-OH,4S-OH)]T[Pro(3S-OH,4S-Me)]; lactam 1-C): the values for the MIC (with Candida albicans A-26 [1]; in assay [2]) were 0.156 μg/disc and below 0.156 μg/disc, respectively.
`CCCCCOc1ccc(CCC(=O)N[C@H]2C[C@@H](O)[C@@H](O)NC(=O)[C@@H]3[C@@H](O)[C@@H](C)CN3C(=O)[C@H]([C@@H](C)O)NC(=O)[C@H]([C@H](O)[C@@H](O)c3ccc(O)cc3)NC(=O)[C@@H]3C[C@@H](O)CN3C(=O)[C@H]([C@@H](C)O)NC2=O)cc1` (X26-[Orn(4R-OH,5R-OH)]T[Hyp][hTyr(3S-OH,4S-OH)]T[Pro(3S-OH,4S-Me)]; lactam 1-C): the results for the MIC (against Candida albicans A-26 [1]; in assay [2]) were 5 μg/disc and 0.156 μg/disc, respectively.
For the compound `CCCCCCCOc1ccc(CCC(=O)N[C@H]2C[C@@H](O)[C@@H](O)NC(=O)[C@@H]3[C@@H](O)[C@@H](C)CN3C(=O)[C@H]([C@@H](C)O)NC(=O)[C@H]([C@H](O)[C@@H](O)c3ccc(O)cc3)NC(=O)[C@@H]3C[C@@H](O)CN3C(=O)[C@H]([C@@H](C)O)NC2=O)cc1` (X29-[Orn(4R-OH,5R-OH)]T[Hyp][hTyr(3S-OH,4S-OH)]T[Pro(3S-OH,4S-Me)]; lactam 1-C), the figures for the MIC (in the assay with Candida albicans A-26 [1]; in assay [2]) were 0.625 μg/disc and 0.156 μg/disc, respectively.
For `CCCCCCCCOc1ccc(C(=O)N[C@H]2C[C@@H](O)[C@@H](O)NC(=O)[C@@H]3[C@@H](O)[C@@H](C)CN3C(=O)[C@H]([C@@H](C)O)NC(=O)[C@H]([C@H](O)[C@@H](O)c3ccc(O)cc3)NC(=O)[C@@H]3C[C@@H](O)CN3C(=O)[C@H]([C@@H](C)O)NC2=O)cn1` (X30-[Orn(4R-OH,5R-OH)]T[Hyp][hTyr(3S-OH,4S-OH)]T[Pro(3S-OH,4S-Me)]; lactam 1-C) the same measures were 80 μg/disc and 2.5 μg/disc.
`CCCCCCCCOc1ccc(C(=O)N[C@H]2C[C@@H](O)[C@@H](O)NC(=O)[C@@H]3[C@@H](O)[C@@H](C)CN3C(=O)[C@H]([C@@H](C)O)NC(=O)[C@H]([C@H](O)[C@@H](O)c3ccc(O)cc3)NC(=O)[C@@H]3C[C@@H](O)CN3C(=O)[C@H]([C@@H](C)O)NC2=O)cc1` [drawing 115] ({Benzoyl(4-octyloxy)}-[Orn(4R-OH,5R-OH)]T[Hyp][hTyr(3S-OH,4S-OH)]T[Pro(3S-OH,4S-Me)]; lactam 1-C): the MIC in the assay with Candida albicans A-26 [1] is recorded as 0.156 μg/disc; in assay [2], below 0.039 μg/disc.
As to `CCCCCCCCCCOc1ccc(C(=O)N[C@H]2C[C@@H](O)[C@@H](O)NC(=O)[C@@H]3[C@@H](O)[C@@H](C)CN3C(=O)[C@H]([C@@H](C)O)NC(=O)[C@H]([C@H](O)[C@@H](O)c3ccc(O)cc3)NC(=O)[C@@H]3C[C@@H](O)CN3C(=O)[C@H]([C@@H](C)O)NC2=O)cc1` [drawing 116] ({Benzoyl(4-OC10H21)}-[Orn(4R-OH,5R-OH)]T[Hyp][hTyr(3S-OH,4S-OH)]T[Pro(3S-OH,4S-Me)]; lactam 1-C), the MIC is recorded as 0.156 μg/disc in the assay on Candida albicans A-26 [1] and below 0.078 μg/disc in assay [2].
As for `CCCCCCCCSc1ccc(C(=O)N[C@H]2C[C@@H](O)[C@@H](O)NC(=O)[C@@H]3[C@@H](O)[C@@H](C)CN3C(=O)[C@H]([C@@H](C)O)NC(=O)[C@H]([C@H](O)[C@@H](O)c3ccc(O)cc3)NC(=O)[C@@H]3C[C@@H](O)CN3C(=O)[C@H]([C@@H](C)O)NC2=O)cc1` [drawing 119] (X7-[Orn(4R-OH,5R-OH)]T[Hyp][hTyr(3S-OH,4S-OH)]T[Pro(3S-OH,4S-Me)]; lactam 1-C), the figures for the MIC (against Candida albicans A-26 [1]; in assay [2]) were 0.312 μg/disc and below 0.039 μg/disc, respectively.
`CCCCCCCCCCSc1ccc(C(=O)N[C@H]2C[C@@H](O)[C@@H](O)NC(=O)[C@@H]3[C@@H](O)[C@@H](C)CN3C(=O)[C@H]([C@@H](C)O)NC(=O)[C@H]([C@H](O)[C@@H](O)c3ccc(O)cc3)NC(=O)[C@@H]3C[C@@H](O)CN3C(=O)[C@H]([C@@H](C)O)NC2=O)cc1` [drawing 120] (X6-[Orn(4R-OH,5R-OH)]T[Hyp][hTyr(3S-OH,4S-OH)]T[Pro(3S-OH,4S-Me)]; lactam 1-C): the MIC is 0.156 μg/disc in the assay on Candida albicans A-26 [1] and 0.039 μg/disc in assay [2].
With `CCCCCCCCCCCCSc1ccc(C(=O)N[C@H]2C[C@@H](O)[C@@H](O)NC(=O)[C@@H]3[C@@H](O)[C@@H](C)CN3C(=O)[C@H]([C@@H](C)O)NC(=O)[C@H]([C@H](O)[C@@H](O)c3ccc(O)cc3)NC(=O)[C@@H]3C[C@@H](O)CN3C(=O)[C@H]([C@@H](C)O)NC2=O)cc1` [drawing 121] (X1-[Orn(4R-OH,5R-OH)]T[Hyp][hTyr(3S-OH,4S-OH)]T[Pro(3S-OH,4S-Me)]; lactam 1-C), the MIC in the assay on Candida albicans A-26 [1] is reported as 2.5 μg/disc; in assay [2], below 0.039 μg/disc.
Regarding `CCCCCCCCS(=O)(=O)c1ccc(C(=O)N[C@H]2C[C@@H](O)[C@@H](O)NC(=O)[C@@H]3[C@@H](O)[C@@H](C)CN3C(=O)[C@H]([C@@H](C)O)NC(=O)[C@H]([C@H](O)[C@@H](O)c3ccc(O)cc3)NC(=O)[C@@H]3C[C@@H](O)CN3C(=O)[C@H]([C@@H](C)O)NC2=O)cc1` [drawing 123] (X23-[Orn(4R-OH,5R-OH)]T[Hyp][hTyr(3S-OH,4S-OH)]T[Pro(3S-OH,4S-Me)]; lactam 1-C), the MIC against Candida albicans A-26 [1] was 20 μg/disc; in assay [2], 0.312 μg/disc.
The ED50 is the midpoint of the dose-response relation. Consider `CCCCCCCCS(=O)(=O)c1ccc(C(=O)N[C@H]2C[C@@H](O)[C@@H](O)NC(=O)[C@@H]3[C@@H](O)[C@@H](C)CN3C(=O)[C@H]([C@@H](C)O)NC(=O)[C@H]([C@H](O)[C@@H](O)c3ccc(O)cc3)NC(=O)[C@@H]3C[C@@H](O)CN3C(=O)[C@H]([C@@H](C)O)NC2=O)cc1` [drawing 159] (X23-[Orn(4R-OH,5R-OH)]T[Hyp][hTyr(3S-OH,4S-OH)]T[Pro(3S-OH,4S-Me)]; lactam 1-C), for which the median effective dose (ED50) in the assay on Candida albicans A-26 [3] is 57 mg/kg.
For the compound `CCCCCCCCCCS(=O)(=O)c1ccc(C(=O)N[C@H]2C[C@@H](O)[C@@H](O)NC(=O)[C@@H]3[C@@H](O)[C@@H](C)CN3C(=O)[C@H]([C@@H](C)O)NC(=O)[C@H]([C@H](O)[C@@H](O)c3ccc(O)cc3)NC(=O)[C@@H]3C[C@@H](O)CN3C(=O)[C@H]([C@@H](C)O)NC2=O)cc1` [drawing 160] (X4-[Orn(4R-OH,5R-OH)]T[Hyp][hTyr(3S-OH,4S-OH)]T[Pro(3S-OH,4S-Me)]; lactam 1-C), the ED50 in the assay on Candida albicans A-26 [3] is 57 mg/kg.
The same measure, in the same setting: next, `CCCCCCCCOc1ccc(CCC(=O)N[C@H]2C[C@@H](O)[C@@H](O)NC(=O)[C@@H]3[C@@H](O)[C@@H](C)CN3C(=O)[C@H]([C@@H](C)O)NC(=O)[C@H]([C@H](O)[C@@H](O)c3ccc(O)cc3)NC(=O)[C@@H]3C[C@@H](O)CN3C(=O)[C@H]([C@@H](C)O)NC2=O)cc1` [drawing 172] (X21-[Orn(4R-OH,5R-OH)]T[Hyp][hTyr(3S-OH,4S-OH)]T[Pro(3S-OH,4S-Me)]; lactam 1-C): 4.5 mg/kg; `CCCCCCCCCCCCOc1ccc(CCC(=O)N[C@H]2C[C@@H](O)[C@@H](O)NC(=O)[C@@H]3[C@@H](O)[C@@H](C)CN3C(=O)[C@H]([C@@H](C)O)NC(=O)[C@H]([C@H](O)[C@@H](O)c3ccc(O)cc3)NC(=O)[C@@H]3C[C@@H](O)CN3C(=O)[C@H]([C@@H](C)O)NC2=O)cc1` [drawing 173] (X22-[Orn(4R-OH,5R-OH)]T[Hyp][hTyr(3S-OH,4S-OH)]T[Pro(3S-OH,4S-Me)]; lactam 1-C): 4.5 mg/kg.
